Where a name gives a salt, the structure may show the parent alone.
Assays:
[1] = tested on: IL-1β release upon NLRP3 activation in peripheral blood mononuclear cells (PBMC); test: PBMC IC50 Determination Assay; assay type: cell-based; conditions: Homo sapiens; inhibition of IL-1β release; LPS-primed PBMC stimulated with ATP or nigericin
Procedure: The compounds of the present disclosure were tested for their inhibitory activity against IL-1β release upon NLRP3 activation in peripheral blood mononuclear cells (PBMC).
Protocol A. PBMC were isolated from buffy coats by density gradient centrifugation on Histopaque-1077 (Sigma, cat no. 10771). Isolated cells were seeded into the wells of a 96-well plate and incubated for 3 h with lipopolysaccharide (LPS). Following medium exchange, the compounds of the present disclosure were added (a single compound per well) and the cells were incubated for 30 min. Next, the cells were stimulated either with ATP (5 mM) or nigericin (10 μM) for 1 h and the cell culture media from the wells were collected for further analysis.
The release of IL-1β into the media was determined by a quantitative detection of IL-1β in the media using an IL-1β enzyme-linked immunosorbent assay (ELISA) Ready-SET-Go!, eBioscience cat. No. 88-7261-88. Briefly, in a first step, high affinity binding plates (Corning, Costar 9018 or NUNC Maxisorp Cat No. 44-2404) were coated overnight at 4° C. with specific capture antibody included in the kit (anti-human IL-1β ref. 14-7018-68). Subsequently, plates were blocked with blocking buffer for 1 h at room temperature (rt) and after washing with a buffer (PBS with 0.05% Tween-20) incubated with protein standard and culture media. After 2 h of incubation at rt, plates were washed and incubated with biotinylated detection antibody included in the kit (anti-human IL-1β Biotin ref. 33-7110-68) for 1 h at rt. Plates were washed and incubated with HRP-streptavidin for 30 min at rt and washed again. The signal was developed after addition of 3,3′,5,5′-tetramethylbenzidine-peroxidase (TMB) until colour appeared and the reaction was stopped by 2 M H2SO4. A microplate spectrophotometer (BioTek) was used to detect signals with 450 nm. The detection range of IL-1β ELISA was […].
Protocol B. PBMC were isolated from buffy coats by density gradient centrifugation on Histopaque-1077 (Sigma, cat no. 10771). Isolated cells were seeded into the wells (280,000 cells/well) of a 96-well plate and incubated for 3 h with lipopolysaccharide (LPS, 1 μg/mL diluted 1000× from a 1 mg/mL stock solution). The compounds of the present disclosure were added (a single compound per well) and the cells were incubated for 30 min. Next, the cells were stimulated with ATP (5 mM final concentration diluted 20× from a 100 mM stock solution) for 1 h and the cell culture media from the wells were collected for further analysis.
The release of IL-1β into the media was determined by quantitative detection of IL-1β in the media using HTRF®, CisBio cat. No. 62HIL1BPEH. Briefly, cell culture supernatant were dispensed directly into the assay plate containing antibodies labelled with the HTRF® donor and acceptor. A microplate spectrophotometer (BMG) was used to detect signals at 655 nm and 620 nm. The detection range of IL-1β HTRF® was 39-6500 μg/mL.

THP-1 = THP-1 IC50 assay; assay type: cell-based; conditions: Homo sapiens; THP-1 cells

| SMILES | IC50 [1] [nM] | IC50 (THP-1) [nM] |
| --- | --- | --- |
| Cc1cc(C(F)(F)F)cc(O)c1-c1ccc(CNCC2CCCOC2)nn1 (centres unmarked) [Compound 108] | 3000 to 10000 | 3000 to 10000 |
| Cc1c(C(F)(F)F)ccc(-c2ccc(CNC3CCOCC3)nn2)c1O [Compound 9, 2-Methyl-6-(6-(((tetrahydro-2H-pyran-4-yl)amino)methyl)pyridazin-3-yl)-3-(trifluoromethyl)phenol] | ≥ 10000 | ≥ 10000 |
| Cc1cc(C(F)(F)F)cc(O)c1-c1ccc(CNCc2cnn(C)c2)nn1 [Compound 128] | 1000 to 3000 | 1000 to 3000 |
| Cc1cc(C(F)(F)F)cc(O)c1-c1ccc(CNc2cnccn2)nn1 [Compound 146] | 500 to 1000 | 500 to 1000 |
| Cc1cc(C(F)(F)F)cc(O)c1-c1ccc(CN2CC[C@@H](F)C2)nn1 [Compound 34, (R)-2-(6-((3-Fluoropyrrolidin-1-yl)methyl)pyridazin-3-yl)-3-methyl-5-(trifluoromethyl)phenol] | 1000 to 3000 | 1000 to 3000 |
| Cc1cnc(NCc2ccc(-c3c(C)cc(C(F)(F)F)cc3O)nn2)s1 [Compound 83, 3-Methyl-2-(6-{[(5-methyl-1,3-thiazol-2-yl)amino]methyl}pyridazin-3-yl)-5-(trifluoromethyl)phenol] | 500 to 1000 | 1000 to 3000 |
| Oc1cc(C(F)(F)F)cc(C(F)(F)F)c1-c1ccc(CNC2CCOCC2)nn1 [Compound 85, 2-(6-{[(Oxan-4-yl)amino]methyl}pyridazin-3-yl)-3,5-bis(trifluoromethyl)phenol] | 1000 to 3000 | 1000 to 3000 |
| Cc1cc(C(F)(F)F)cc(O)c1-c1ccc(CNC2(C)CCOC2)nn1 (centres unmarked) [Compound 6, 3-Methyl-2-(6-(((3-methyltetrahydrofuran-3-yl)amino)methyl)pyridazin-3-yl)-5-(trifluoromethyl)phenol hydrochloride] | 500 to 1000 | 500 to 1000 |
| Cc1cc(C(F)(F)F)cc(O)c1-c1ccc(CN)nn1 [Compound 20, 2-[6-(aminomethyl)pyridazin-3-yl]-3-methyl-5-(trifluoromethyl)phenol] | 1000 to 3000 | 3000 to 10000 |
| Cc1cc(C(F)(F)F)cc(O)c1-c1ccc(CNC2CCN(C)C2)nn1 (centres unmarked) [Compound 71, 3-Methyl-2-(6-(((1-methylpyrrolidin-3-yl)amino)methyl)pyridazin-3-yl)-5-(trifluoromethyl)phenol dihydrochloride] | 500 to 1000 | 1000 to 3000 |
| Cc1cc(-c2ccc(CNC3CCOCC3)nn2)c(O)cc1C(F)(F)F [Compound 15, 4-Methyl-2-(6-(((tetrahydro-2H-pyran-4-yl)amino)methyl)pyridazin-3-yl)-5-(trifluoromethyl)phenol] | ≥ 10000 | ≥ 10000 |
| Cc1cc([N+](=O)[O-])cc(O)c1-c1ccc(CNC2CCOCC2)nn1 [Compound 57, 3-Methyl-5-nitro-2-(6-(((tetrahydro-2H-pyran-4-yl)amino)methyl)pyridazin-3-yl)phenol hydrochloride] | 1000 to 3000 | 3000 to 10000 |
| Cc1cc(C(F)(F)F)cc(O)c1-c1ccc(CNC(=O)C2CCOCC2)nn1 [Compound 7, N-((6-(2-Hydroxy-6-methyl-4-(trifluoromethyl)phenyl)pyridazin-3-yl)methyl)tetrahydro-2H-pyran-4-carboxamide] | 3000 to 10000 | 3000 to 10000 |
| Cc1cc(C(F)(F)F)cc(O)c1-c1ccc(CNC2COC2)nn1 [Compound 21] | 500 to 1000 | 500 to 1000 |
| Cc1cc(C(F)(F)F)cc(O)c1-c1ccc(CN2C(=O)CCC2(C)C)nn1 [Compound 47, 1-((6-(2-Hydroxy-6-methyl-4-(trifluoromethyl)phenyl)pyridazin-3-yl)methyl)-5,5-dimethylpyrrolidin-2-one] | 1000 to 3000 | 3000 to 10000 |
| Cc1cc(C(F)(F)F)cc(O)c1-c1ccc(CN2CCOC2=O)nn1 [Compound 44, 3-((6-(2-Hydroxy-6-methyl-4-(trifluoromethyl)phenyl)pyridazin-3-yl)methyl)oxazolidin-2-one] | < 500 | 500 to 1000 |

| SMILES | IC50 [1] [nM] | IC50 (THP-1) [nM] |
| --- | --- | --- |
| Oc1cc(C(F)(F)F)ccc1-c1ccc(CNC2CCOCC2)nn1 [Compound 13, 2-(6-(((Tetrahydro-2H-pyran-4-yl)amino)methyl)pyridazin-3-yl)-5-(trifluoromethyl)phenol] | 3000 to 10000 | 3000 to 10000 |
| Cc1cc(C(F)(F)F)cc(O)c1-c1ccc(CNc2cnoc2)nn1 [Compound 124] | < 500 | < 500 |
| Cc1cc(C(F)(F)F)cc(O)c1-c1ccc(CNC2CCCC2)nn1 [Compound 101] | < 500 | 500 to 1000 |
| Cc1cc(C(F)(F)F)cc(O)c1-c1ccc(CN[C@H]2CC[C@](C)(O)CC2)nn1 [Compound 152] | 1000 to 3000 | 1000 to 3000 |
| Cc1cc(C(F)(F)F)cc(O)c1-c1ccc(C(C)(C)N2CCCC2=O)nn1 [Compound 81, 1-(2-{6-[2-Hydroxy-6-methyl-4-(trifluoromethyl)phenyl]pyridazin-3-yl}propan-2-yl)pyrrolidin-2-one] | 1000 to 3000 | 1000 to 3000 |
| Oc1cc(C(F)(F)F)cc(Cl)c1-c1ccc(CNC2CCOCC2)nn1 [Compound 14, 3-Chloro-2-(6-(((tetrahydro-2H-pyran-4-yl)amino)methyl)pyridazin-3-yl)-5-(trifluoromethyl)phenol] | 1000 to 3000 | 1000 to 3000 |
| Cc1cc(C(F)(F)F)cc(O)c1-c1ccc(CNCC2CCN(C)C2)nn1 (centres unmarked) [Compound 77, 3-Methyl-2-[6-({[(1-methylpyrrolidin-3-yl)methyl]amino}methyl)pyridazin-3-yl]-5-(trifluoromethyl)phenol dihydrochloride] | 1000 to 3000 | 1000 to 3000 |
| Cc1cc(Cl)cc(O)c1-c1ccc(CN[C@@H]2CCC(=O)N(C)C2)nn1 [Compound 66, (R)-5-(((6-(4-Chloro-2-hydroxy-6-methylphenyl)pyridazin-3-yl)methyl)amino)-1-methylpiperidin-2-one] | 500 to 1000 | 1000 to 3000 |
| Cc1cc(C(F)(F)F)cc(O)c1-c1ccc(Cn2ccc(=N)cc2)nn1 [Compound 25] | 3000 to 10000 | 3000 to 10000 |
| Cc1cc(C(F)(F)F)cc(O)c1-c1ccc(CNC2(C)CCOCC2)nn1 [Compound 5, 3-Methyl-2-(6-(((4-methyltetrahydro-2H-pyran-4-yl)amino)methyl)pyridazin-3-yl)-5-(trifluoromethyl)phenol] | 500 to 1000 | 500 to 1000 |
| Cc1cc(C(F)(F)F)cc(O)c1-c1ccc(CNC2CC3(COC3)C2)nn1 [Compound 2, 2-(6-(((2-Oxaspiro[3.3]heptan-6-yl)amino)methyl)pyridazin-3-yl)-3-methyl-5-(trifluoromethyl)phenol] | 500 to 1000 | 500 to 1000 |
| Cc1cc(C(F)(F)F)cc(O)c1-c1ccc(CN(C)C2CCOCC2)nn1 [Compound 129] | 1000 to 3000 | 1000 to 3000 |
| Cc1cc(C(F)(F)F)cc(O)c1-c1ccc(CN2CC[C@H](F)C2)nn1 [Compound 35, (S)-2-(6-((3-Fluoropyrrolidin-1-yl)methyl)pyridazin-3-yl)-3-methyl-5-(trifluoromethyl)phenol] | 500 to 1000 | 500 to 1000 |
| Cc1cc(C(F)(F)F)cc(O)c1-c1ccc(CNC2CCN(C)C2=O)nn1 (centres unmarked) [Compound 113] | 500 to 1000 | 1000 to 3000 |
| Cc1cnc(NCc2ccc(-c3c(C)cc(C(F)(F)F)cc3O)nn2)o1 [Compound 148] | – | 1000 to 3000 |
| Cc1cc(C(F)(F)F)cc(O)c1-c1ccc(CNC2CC(F)(F)C2)nn1 [Compound 143] | < 500 | – |

From US20250115558A1, “PYRIDAZINE DERIVATIVES AND RELATED USES” (NodThera Limited, priority 2023, published 2025)
